Common to all, as to type: biochemical
In one test the target is EGFR (D770_N771insNPG) (Homo sapiens (Human), UniProt P00533, INS770NPG). The test is described as follows: HotSpot radiometric kinase assay, EGFR (D770_N771insNPG). The settings on record: 10 μM ATP, read-out: EGFR (Δ770_N771insNPG) IC50. Put shortly:
(§1)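 10 μM ATP (33P-labelled, final); 120 min RT; P81 filter capture, 0.75% phosphoric acid washes. Cpd preincubated ~20 min with enzyme/substrate, 20 mM Hepes pH 7.5, 10 mM MgCl2, 1% DMSO. IC50 by curve fit.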

The next test addresses EGFR WT (Homo sapiens (Human), UniProt P00533). As to the kind of experiment: HotSpot radiometric kinase assay (Reaction Biology), EGFR WT. The settings on record: 10 μM ATP. Put shortly: as §1
Another test concerns the target CLK3 (Homo sapiens (Human), UniProt P49761). The test is described as follows: Inhibition of CLK3 kinase activity evaluated at Nanosyn (ADP-Glo). Particulars: ADP-Glo luminescence. A digest of the protocol:
(§2)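 Percent inhibition derived from luminescent ADP detection (ADP-Glo), normalised to DMSO-only and enzyme-free wells. Reactions ran in HEPES pH 7.5 buffer with Mg2+, Triton X-100 and BSA, 1% DMSO, ATP-initiated, for an assay-specific time.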

Test [1] concerns the target EGFR Δ746-750/C797S mutant (Homo sapiens (Human), UniProt P00533, C797S/DEL746-750). As to the kind of experiment: HotSpot radiometric kinase assay, EGFR Δ746-750/C797S mutant. Particulars: 10 μM ATP. Put shortly: as §1
The target of a further test is EGFR Δ746-750 mutant (Homo sapiens (Human), UniProt P00533, DEL746-750). The test is described as follows: HotSpot radiometric kinase assay, EGFR Δ746-750 mutant. Particulars: 10 μM ATP. Put shortly: as §1
Sequence of EGFR Δ746-750 mutant (P00533 other isoform, or with tags, fused parts or gaps del 1-668/del 746-750 limits assumed): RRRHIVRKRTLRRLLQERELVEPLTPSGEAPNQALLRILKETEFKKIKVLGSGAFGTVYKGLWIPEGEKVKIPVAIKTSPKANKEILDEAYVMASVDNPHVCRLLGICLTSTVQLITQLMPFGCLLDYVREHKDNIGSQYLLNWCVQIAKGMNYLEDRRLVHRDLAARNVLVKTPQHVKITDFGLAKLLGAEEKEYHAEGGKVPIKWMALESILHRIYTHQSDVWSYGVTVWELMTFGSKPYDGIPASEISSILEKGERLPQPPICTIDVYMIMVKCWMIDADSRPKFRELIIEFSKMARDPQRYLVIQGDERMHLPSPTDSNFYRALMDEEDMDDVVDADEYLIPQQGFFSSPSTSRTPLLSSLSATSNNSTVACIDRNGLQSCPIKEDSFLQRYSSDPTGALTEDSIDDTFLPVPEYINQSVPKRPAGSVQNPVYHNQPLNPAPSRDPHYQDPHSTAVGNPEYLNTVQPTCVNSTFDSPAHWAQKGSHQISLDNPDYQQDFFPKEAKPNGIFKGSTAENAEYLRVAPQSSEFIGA
The target of a further test is CLK4 (Homo sapiens (Human), UniProt Q9HAZ1). The test is described as follows: Inhibition of CLK4 kinase activity evaluated at Nanosyn (ADP-Glo). Particulars: ADP-Glo luminescence. Put shortly: as §2
Sequence of CLK4 (Q9HAZ1 whole entry): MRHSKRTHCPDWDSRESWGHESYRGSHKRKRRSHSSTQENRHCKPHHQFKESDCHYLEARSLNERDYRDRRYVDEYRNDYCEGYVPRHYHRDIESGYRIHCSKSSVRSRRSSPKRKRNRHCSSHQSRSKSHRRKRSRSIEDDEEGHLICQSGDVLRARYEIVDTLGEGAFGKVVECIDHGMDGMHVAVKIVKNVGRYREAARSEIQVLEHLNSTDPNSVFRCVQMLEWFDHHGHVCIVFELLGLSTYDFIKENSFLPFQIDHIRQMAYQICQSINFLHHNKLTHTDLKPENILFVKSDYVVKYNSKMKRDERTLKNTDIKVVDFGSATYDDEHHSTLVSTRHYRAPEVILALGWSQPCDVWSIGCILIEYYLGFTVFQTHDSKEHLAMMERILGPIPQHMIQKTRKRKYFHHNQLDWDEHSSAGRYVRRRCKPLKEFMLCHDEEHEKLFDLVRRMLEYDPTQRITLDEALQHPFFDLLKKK
In a further test the target is EGFR L858R/T790M mutant (Homo sapiens (Human), UniProt P00533, L858R/T790M). As to the kind of experiment: HotSpot radiometric kinase assay, EGFR L858R/T790M mutant. Particulars: 10 μM ATP. A digest of the protocol: as §1
In test [2] the target is EGFR L858R/T790M/C797S mutant (Homo sapiens (Human), UniProt P00533, C797S/L858R/T790M). The test is described as follows: HotSpot radiometric kinase assay, EGFR L858R/T790M/C797S mutant. The settings on record: 10 μM ATP. A digest of the protocol: as §1
The target of a further test is CLK2 (Homo sapiens (Human), UniProt P49760). The test is described as follows: Inhibition of CLK2 kinase activity evaluated at Nanosyn (ADP-Glo). Particulars: ADP-Glo luminescence. Put shortly:
as §2

The target in the next test is ALK (Homo sapiens (Human), UniProt Q9UM73). The test is described as follows: HotSpot radiometric kinase assay, inhibition of ALK kinase activity. The settings on record: 10 μM ATP. As to the method: Briefly, specific kinase/substrate pairs along with required cofactors were prepared in reaction buffer; 20 mM Hepes pH 7.5, 10 mM […], 1 mM EGTA, 0.02% Brij35, 0.02 mg/ml BSA, 0.1 mM Na3VO4, 2 mM DTT, 1% DMSO. Compounds were delivered into the reaction, followed […] later by addition of a mixture of ATP (Sigma, St. Louis MO) and ^33P ATP (Perkin Elmer, Waltham MA) to a final concentration of 10 μM. Reactions were carried out at room temperature for 120 min, followed by spotting of the reactions onto P81 ion exchange filter paper (Whatman Inc., Piscataway, NJ). Unbound phosphate was removed by extensive washing of filters in 0.75% phosphoric acid. […] IC50 values and curve fits were obtained using Prism (GraphPad Software).

In another test the target is CLK1 (Homo sapiens (Human), UniProt P49759). The test is described as follows: Inhibition of CLK1 kinase activity evaluated at Nanosyn (ADP-Glo). Particulars: ADP-Glo luminescence. A digest of the protocol: as §2
Sequence of CLK1 (P49759 whole entry): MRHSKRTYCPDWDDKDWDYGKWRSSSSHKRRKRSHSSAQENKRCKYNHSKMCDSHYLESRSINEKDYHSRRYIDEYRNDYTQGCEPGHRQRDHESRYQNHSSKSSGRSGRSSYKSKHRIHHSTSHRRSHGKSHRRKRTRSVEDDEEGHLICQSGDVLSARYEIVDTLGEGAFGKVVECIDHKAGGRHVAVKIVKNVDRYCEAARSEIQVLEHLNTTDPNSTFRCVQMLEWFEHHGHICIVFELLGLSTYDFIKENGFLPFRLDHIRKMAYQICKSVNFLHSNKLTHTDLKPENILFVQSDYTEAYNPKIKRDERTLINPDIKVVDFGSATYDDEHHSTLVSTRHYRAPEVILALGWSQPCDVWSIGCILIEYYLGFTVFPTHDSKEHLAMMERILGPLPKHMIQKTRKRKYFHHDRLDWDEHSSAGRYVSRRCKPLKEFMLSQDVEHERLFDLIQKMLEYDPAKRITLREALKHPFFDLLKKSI
In another test the target is EGFR L858R mutant (Homo sapiens (Human), UniProt P00533, L858R). As to the kind of experiment: HotSpot radiometric kinase assay, EGFR L858R mutant. The settings on record: 10 μM ATP. A digest of the protocol:
as §1

Sequence of CLK2 (P49760 whole entry): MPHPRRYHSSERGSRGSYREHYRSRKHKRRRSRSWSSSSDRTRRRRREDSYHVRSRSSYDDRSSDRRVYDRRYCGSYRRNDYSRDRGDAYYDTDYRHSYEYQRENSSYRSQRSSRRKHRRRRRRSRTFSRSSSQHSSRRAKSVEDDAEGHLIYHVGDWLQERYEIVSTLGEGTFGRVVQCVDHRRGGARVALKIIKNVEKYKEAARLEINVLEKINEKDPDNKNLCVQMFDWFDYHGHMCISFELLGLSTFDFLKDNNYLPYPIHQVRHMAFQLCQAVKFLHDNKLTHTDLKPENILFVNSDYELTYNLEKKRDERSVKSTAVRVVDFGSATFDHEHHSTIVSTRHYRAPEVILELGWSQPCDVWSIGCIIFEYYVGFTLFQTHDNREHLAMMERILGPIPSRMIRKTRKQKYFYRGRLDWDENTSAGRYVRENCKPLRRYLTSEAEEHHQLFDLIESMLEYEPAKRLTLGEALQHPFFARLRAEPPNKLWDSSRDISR
Sequence of EGFR L858R mutant (P00533 25-1210 L858R): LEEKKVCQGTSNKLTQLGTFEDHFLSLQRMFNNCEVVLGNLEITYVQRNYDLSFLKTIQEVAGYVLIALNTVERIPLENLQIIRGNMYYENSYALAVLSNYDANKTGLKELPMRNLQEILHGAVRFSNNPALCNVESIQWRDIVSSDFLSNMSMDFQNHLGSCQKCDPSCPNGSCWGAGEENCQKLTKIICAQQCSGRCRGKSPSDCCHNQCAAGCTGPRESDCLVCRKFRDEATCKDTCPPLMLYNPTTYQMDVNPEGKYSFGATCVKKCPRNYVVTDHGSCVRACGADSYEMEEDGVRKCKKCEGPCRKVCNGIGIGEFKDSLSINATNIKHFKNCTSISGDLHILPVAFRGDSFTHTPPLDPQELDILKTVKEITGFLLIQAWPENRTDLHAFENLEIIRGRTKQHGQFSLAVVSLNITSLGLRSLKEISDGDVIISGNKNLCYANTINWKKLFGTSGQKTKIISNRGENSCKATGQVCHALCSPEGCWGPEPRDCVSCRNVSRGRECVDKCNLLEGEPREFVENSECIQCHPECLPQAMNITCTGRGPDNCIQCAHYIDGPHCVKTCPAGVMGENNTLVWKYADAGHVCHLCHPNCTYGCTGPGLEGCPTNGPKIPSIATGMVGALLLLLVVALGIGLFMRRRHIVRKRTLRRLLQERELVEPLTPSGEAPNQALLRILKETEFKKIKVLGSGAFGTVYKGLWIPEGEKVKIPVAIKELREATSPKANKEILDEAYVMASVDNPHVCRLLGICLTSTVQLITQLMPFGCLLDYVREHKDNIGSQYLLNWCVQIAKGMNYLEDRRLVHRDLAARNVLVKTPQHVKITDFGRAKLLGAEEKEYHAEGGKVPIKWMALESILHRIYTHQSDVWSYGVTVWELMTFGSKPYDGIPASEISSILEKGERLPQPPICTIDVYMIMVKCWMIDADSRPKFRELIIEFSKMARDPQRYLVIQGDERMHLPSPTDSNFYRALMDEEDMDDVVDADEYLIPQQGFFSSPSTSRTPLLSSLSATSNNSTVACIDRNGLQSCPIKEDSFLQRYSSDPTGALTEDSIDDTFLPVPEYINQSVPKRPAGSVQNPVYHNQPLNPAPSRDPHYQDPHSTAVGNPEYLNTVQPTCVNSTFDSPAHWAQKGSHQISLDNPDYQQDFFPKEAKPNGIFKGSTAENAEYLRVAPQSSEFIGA
Sequence of EGFR WT (P00533 25-1210): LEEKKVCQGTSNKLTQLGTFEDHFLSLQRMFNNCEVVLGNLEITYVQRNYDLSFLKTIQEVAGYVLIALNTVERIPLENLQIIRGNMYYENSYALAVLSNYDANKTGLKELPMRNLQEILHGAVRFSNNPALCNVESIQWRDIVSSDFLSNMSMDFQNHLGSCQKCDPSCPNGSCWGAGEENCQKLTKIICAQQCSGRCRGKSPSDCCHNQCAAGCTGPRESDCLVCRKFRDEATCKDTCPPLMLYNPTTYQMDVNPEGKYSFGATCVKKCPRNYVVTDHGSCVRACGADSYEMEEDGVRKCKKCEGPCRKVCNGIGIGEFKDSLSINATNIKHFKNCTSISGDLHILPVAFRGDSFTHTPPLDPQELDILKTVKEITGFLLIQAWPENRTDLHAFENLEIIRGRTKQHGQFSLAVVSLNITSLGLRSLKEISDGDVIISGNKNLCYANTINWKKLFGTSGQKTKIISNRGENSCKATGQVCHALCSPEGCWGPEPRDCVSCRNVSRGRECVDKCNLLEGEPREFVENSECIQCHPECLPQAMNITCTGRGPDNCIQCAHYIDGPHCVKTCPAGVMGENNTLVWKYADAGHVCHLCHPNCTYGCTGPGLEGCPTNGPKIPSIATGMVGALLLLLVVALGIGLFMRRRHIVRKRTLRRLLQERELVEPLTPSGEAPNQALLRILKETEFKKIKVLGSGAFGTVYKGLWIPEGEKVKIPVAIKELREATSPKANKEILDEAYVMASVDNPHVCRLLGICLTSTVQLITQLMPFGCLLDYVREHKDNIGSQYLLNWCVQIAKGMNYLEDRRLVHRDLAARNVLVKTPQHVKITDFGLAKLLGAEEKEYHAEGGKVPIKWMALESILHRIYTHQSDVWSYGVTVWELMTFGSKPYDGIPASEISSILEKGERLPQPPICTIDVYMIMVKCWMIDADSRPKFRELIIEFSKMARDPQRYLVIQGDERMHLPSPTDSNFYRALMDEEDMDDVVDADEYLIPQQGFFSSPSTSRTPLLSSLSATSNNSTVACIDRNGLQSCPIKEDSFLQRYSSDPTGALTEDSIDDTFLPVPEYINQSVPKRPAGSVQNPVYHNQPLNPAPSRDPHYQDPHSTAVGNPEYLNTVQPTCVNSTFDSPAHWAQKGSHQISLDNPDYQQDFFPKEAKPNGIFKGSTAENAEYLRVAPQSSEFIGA
Sequence of EGFR Δ746-750/C797S mutant (P00533 other isoform, or with tags, fused parts or gaps C797S/del 1-668/del 746-750 limits assumed): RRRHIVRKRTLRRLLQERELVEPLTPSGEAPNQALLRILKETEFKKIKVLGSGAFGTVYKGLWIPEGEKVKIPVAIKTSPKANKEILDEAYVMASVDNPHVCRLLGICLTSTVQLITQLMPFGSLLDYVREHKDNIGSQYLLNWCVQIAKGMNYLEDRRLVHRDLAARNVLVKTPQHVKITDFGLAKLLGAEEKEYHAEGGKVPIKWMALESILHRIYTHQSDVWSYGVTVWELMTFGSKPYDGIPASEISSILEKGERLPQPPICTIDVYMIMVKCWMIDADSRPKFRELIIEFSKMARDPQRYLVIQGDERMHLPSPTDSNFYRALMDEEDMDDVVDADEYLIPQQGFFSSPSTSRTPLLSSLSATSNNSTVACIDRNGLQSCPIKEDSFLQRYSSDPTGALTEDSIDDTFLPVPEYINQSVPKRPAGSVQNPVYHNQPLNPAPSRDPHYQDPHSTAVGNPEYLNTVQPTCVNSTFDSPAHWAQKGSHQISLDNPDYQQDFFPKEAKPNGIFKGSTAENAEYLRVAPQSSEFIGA

For the molecule `CCN1Cc2c(c(OC(C)C)nn2[C@@H](C)CO)/C=C/c2n[nH]c3cc(F)c(cc23)-c2cnn(C)c2O[C@@H](C)C1` [Example 219, (2S)-2-{(10S,17E)-12-ethyl-19-fluoro-8,10-dimethyl-16-[(propan-2-yl)oxy]-2,8,10,11,12,13-hexahydro-14H-3,5-ethenotripyrazolo[3,4-f:3′,4′-j:4″,3″- n][1,4]oxazacyclopentadecin-14-yl}propan-1-ol], the IC50 amounted to 21.2 nM on EGFR (D770_N771insNPG); 7.25 nM against EGFR WT; 146 nM at CLK3; 5.13 nM in [1]; 3.02 nM against EGFR Δ746-750 mutant; 5.62 nM on CLK4. Moreover, the IC50 worked out at 5.3 nM on EGFR L858R/T790M mutant; 3.84 nM in test [2]; 4.51 nM on CLK2; 1.31 nM against ALK; 2.05 nM at CLK1; 4.73 nM against EGFR L858R mutant.
Regarding `CC(C)Oc1nn([C@@H](C)CO)c2c1/C=C/c1n[nH]c3cc(F)c(cc13)-c1cnn(C)c1O[C@@H](C)CN(C)C2` [Example 200, (2S)-2-{(10S,17E)-19-fluoro-8,10,12-trimethyl-16-[(propan-2-yl)oxy]-2,8,10,11,12,13-hexahydro-14H-3,5-ethenotripyrazolo[3,4-f:3′,4′-j:4″,3″-n][1,4]oxazacyclopentadecin-14-yl}propan-1-ol], the IC50 at EGFR (D770_N771insNPG) amounted to 59.9 nM; at EGFR WT, 6.46 nM; at CLK3, 194 nM; in [1], 1.93 nM; against EGFR Δ746-750 mutant it was 4.08 nM; at CLK4, 1.53 nM. The IC50 against EGFR L858R/T790M mutant was 1.41 nM; in [2], 0.69 nM; at CLK2 it was 1 nM; against ALK, 1.49 nM; at CLK1, 0.48 nM; against EGFR L858R mutant it was 2.01 nM.
For the molecule `CCN1Cc2c(c(OC(C)C)nn2CCO)/C=C/c2n[nH]c3cc(F)c(cc23)-c2cnn(C)c2O[C@@H](C)C1` [Example 216, 2-{(10S,17E)-12-ethyl-19-fluoro-8,10-dimethyl-16-[(propan-2-yl)oxy]-2,8,10,11,12,13-hexahydro-14H-3,5-ethenotripyrazolo[3,4-f:3′,4′-j:4″,3″- n][1,4]oxazacyclopentadecin-14-yl}ethan-1-ol], the IC50 came to 28.9 nM at EGFR (D770_N771insNPG); 2.43 nM on EGFR WT; 115 nM on CLK3; 0.63 nM in [1]; 0.47 nM against EGFR Δ746-750 mutant; 5.39 nM at CLK4. Besides, the IC50 on EGFR L858R/T790M mutant worked out at 0.44 nM; in [2], 0.37 nM; at CLK2, 1.28 nM; against ALK it was 2.04 nM; at CLK1 it was 2.02 nM; on EGFR L858R mutant, 2.22 nM.
As to `Cc1onc2c1/C=C/c1n[nH]c3ccc(cc13)-c1cnn(C)c1O[C@@H](C)CN(C)C2` [Example 134, (10S,17E)-8,10,12,16-tetramethyl-2,8,10,11,12,13-hexahydro-3,5-etheno[1,2]oxazolo[3,4-f]dipyrazolo[3,4-j:4′,3′-n][1,4]oxazacyclopentadecine], the IC50 is more than 1000 nM at EGFR (D770_N771insNPG); 1210 nM at EGFR WT; 230 nM on CLK3; 90.8 nM in test [1]; 173 nM on EGFR Δ746-750 mutant; 0.61 nM at CLK4. For the same molecule, the IC50 against EGFR L858R/T790M mutant is 24 nM; in test [2] it was 12.6 nM; at CLK2, 0.19 nM; against ALK, 21.6 nM; at CLK1 it was 0.29 nM; on EGFR L858R mutant, 182 nM.
As to `Cc1c2c(nn1C)CN(C)C[C@H](C)Oc1c(cnn1C)-c1ccc3[nH]nc(c3c1)/C=C/2` [Example 58, (10S,17E)-8,10,12,15,16-pentamethyl-2,10,11,12,13,15-hexahydro-8H-3,5-ethenotripyrazolo[3,4-f:3′,4′-j:4″,3″- n][1,4]oxazacyclopentadecine], the IC50 on EGFR (D770_N771insNPG) was found to be 222 nM; at EGFR WT, 49.2 nM; on CLK3, 160 nM; in [1] it was 7.29 nM; at EGFR Δ746-750 mutant, 11.1 nM; on CLK4, 0.53 nM. Also, the IC50 came to 1.57 nM in [2]; 0.38 nM at CLK2; 4.79 nM against ALK; 0.2 nM at CLK1; 9.29 nM against EGFR L858R mutant.
In the case of `Cc1noc2c1/C=C/c1n[nH]c3ccc(cc13)-c1cnn(C)c1OCCOC2` [Example 321, (17E)-8,16-dimethyl-2,10,11,13-tetrahydro-8H-3,5-ethenodipyrazolo[3′,4′:10,11;4″,3″:14,15] [1,4]dioxacyclopentadecino[7,6-d][1,2]oxazole], the IC50 at CLK3 worked out at 1.92 nM; on CLK4, 0.847 nM; on CLK2 it was 418 nM; against ALK, 20.8 nM; at CLK1, 1.35 nM.
Consider `Cc1snc2c1/C=C/c1n[nH]c3ccc(cc13)-c1cnn(C)c1OCCOC2` [Example 322, (17E)-8,16-dimethyl-2,8,10,11-tetrahydro-13H-3,5-ethenodipyrazolo[3′,4′:10,11;4″,3″:14,15] [1,4]dioxacyclopentadecino[6,7-c][1,2]thiazole], for which the IC50 at CLK3 amounted to 0.322 nM; on CLK4, 0.636 nM; at CLK2, 34.9 nM; at ALK it was 59.9 nM; on CLK1, 1.04 nM.
For `CCN1Cc2c(c(OC(C)C)nn2C[C@H](C)O)/C=C/c2n[nH]c3ccc(cc23)-c2cnn(C)c2O[C@@H](C)C1` [Ex. 280, (2S)-1-{(10S,17E)-12-ethyl-8,10-dimethyl-16-[(propan-2-yl)oxy]-2,8,10,11,12,13-hexahydro-14H-3,5-ethenotripyrazolo[3,4-f:3′,4′-j:4″,3″-n][1,4]oxazacyclopentadecin-14-yl}propan-2-ol], the IC50 on CLK3 is 242 nM; at CLK4, 1.96 nM; at CLK2, 0.24 nM; against ALK, 1.08 nM; at CLK1, 0.52 nM.
For the molecule `Cc1onc2c1/C=C/c1n[nH]c3ccc(cc13)-c1cnn(C)c1OCCOC2` [Example 320, (17E)-8,16-dimethyl-2,8,10,11-tetrahydro-13H-3,5-ethenodipyrazolo[3′,4′:10,11;4″,3″:14,15] [1,4]dioxacyclopentadecino[6,7-c][1,2]oxazole], the IC50 on CLK3 came out at 0.2 nM; on CLK4, 0.155 nM; at CLK2, 69.7 nM; at ALK, 32.2 nM; on CLK1 it was 0.324 nM.
Turning to `Cn1nc(C#N)c2c1COCCOc1c(cnn1C)-c1ccc3[nH]nc(c3c1)/C=C/2` [Example 302, (17E)-8,14-dimethyl-2,8,10,11,13,14-hexahydro-3,5-etheno[1,4]dioxacyclopentadecino[10,11-c:15,14-c′:6,7-c″]tripyrazole-16-carbonitrile], the IC50 was 1.23 nM at CLK3; 1.33 nM on CLK4; 1000 nM on CLK2; 19.9 nM on ALK; 1.19 nM on CLK1.
For the molecule `CCOc1nn(CCO)c2c1/C=C/c1n[nH]c3cc(F)c(cc13)-c1cnn(C)c1O[C@H](C)CN(CC)C2` [Ex. 277, 2-[(10R,17E)-16-ethoxy-12-ethyl-19-fluoro-8,10-dimethyl-2,8,10,11,12,13-hexahydro-14H-3,5-ethenotripyrazolo[3,4-f:3′,4′-j:4″,3″-n][1,4]oxazacyclopentadecin-14-yl]ethan-1-ol], the IC50 at CLK3 worked out at 51.1 nM; at CLK4, 2.77 nM; on CLK2, 2.99 nM; against ALK, 9.87 nM; on CLK1 it was 4.28 nM.
